Measured values published in patent US20210045385A1, “PYRIDAZINONE-SUBSTITUTED KETOXIMES AS HERBICIDES” (FMC Corporation, priority 2018, published 2021).

What was measured:
Format in all cases: in vivo
[1] = test system: sedge, umbrella (small-flower umbrella sedge, Cyperus difformis); assay: Test B flooded paddy test, visual plant response rating; conditions: 250 g ai/ha, Flood, applied to paddy water, 2-leaf stage, evaluated after 13 to 15 days
Method in brief: (§1)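 2-leaf plants; pots flooded 3 cm over soil surface; compound dosed straight into the floodwater; depth kept constant; greenhouse 13–15 d; visual rating vs. untreated controls.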

[2] = test system: barnyardgrass (Echinochloa crus-galli); assay: as above; conditions: 250 g ai/ha, Flood, applied to paddy water, 2-leaf stage, evaluated after 13 to 15 days
Method in brief: as §1

[3] = test system: ducksalad (Heteranhera limosa); assay: as above; conditions: 250 g ai/ha, Flood, applied to paddy water, 2-leaf stage, evaluated after 13 to 15 days
Method in brief: as §1

[4] = test system: rice (Oryza sativa); assay: as above; conditions: 250 g ai/ha, Flood, applied to paddy water, 2-leaf stage, evaluated after 13 to 15 days
Method in brief: as §1

[5] = test system: kochia (Kochia scoparia); assay: Test A postemergence, visual plant response rating; conditions: for Kochia plant response rating: Postemergence, 125 g ai/ha, 0 to 100 scale (0 no effect, 100 complete control)
Method in brief: (§2)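 Preemergence: seeds in loam/sand blend given directed soil spray of compound in non-phytotoxic solvent with surfactant. Postemergence: plants 2–10 cm, one- to two-leaf stage, sprayed with same formulation. Visual injury rated vs untreated controls after ~10 days in greenhouse, 0 (no effect) to 100 (complete control).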

[6] = test system: galium (catchweed bedstraw, Galium aparine); assay: Test A postemergence, visual plant response rating; conditions: for Galium plant response rating: Postemergence, 125 g ai/ha, 0 to 100 scale (0 no effect, 100 complete control)
Method in brief: as §2

[7] = test system: barnyardgrass (Echinochloa crus-galli); assay: Test A postemergence, visual plant response rating; conditions: for Barnyardgrass plant response rating: Postemergence, 125 g ai/ha, 0 to 100 scale (0 no effect, 100 complete control)
Method in brief: as §2

[8] = test system: blackgrass (Alopecurus myosuroides); assay: Test A postemergence, visual plant response rating; conditions: for Blackgrass plant response rating: Postemergence, 125 g ai/ha, 0 to 100 scale (0 no effect, 100 complete control)
Method in brief: as §2

[9] = test system: corn (Zea mays); assay: Test A postemergence, visual plant response rating; conditions: for Corn plant response rating: Postemergence, 125 g ai/ha, 0 to 100 scale (0 no effect, 100 complete control)
Method in brief: as §2

[10] = test system: foxtail, giant (giant foxtail, Setaria faberii); assay: Test A postemergence, visual plant response rating; conditions: for Foxtail, Giant plant response rating: Postemergence, 125 g ai/ha, 0 to 100 scale (0 no effect, 100 complete control)
Method in brief: as §2

[11] = test system: Italian ryegrass (Lolium multiflorum); assay: Test A postemergence, visual plant response rating; conditions: for Ryegrass, Italian plant response rating: Postemergence, 125 g ai/ha, 0 to 100 scale (0 no effect, 100 complete control)
Method in brief: as §2

[12] = test system: pigweed (Amaranthus retroflexus); assay: Test A postemergence, visual plant response rating; conditions: for Pigweed plant response rating: Postemergence, 125 g ai/ha, 0 to 100 scale (0 no effect, 100 complete control)
Method in brief: as §2

[13] = test system: wheat (Triticum aestivum); assay: Test A postemergence, visual plant response rating; conditions: for Wheat plant response rating: Postemergence, 125 g ai/ha, 0 to 100 scale (0 no effect, 100 complete control)
Method in brief: as §2

[14] = test system: ragweed (common ragweed, Ambrosia elatior); assay: Test A postemergence, visual plant response rating; conditions: for Ragweed plant response rating: Postemergence, 125 g ai/ha, 0 to 100 scale (0 no effect, 100 complete control)
Method in brief: as §2

[15] = test system: kochia (Kochia scoparia); assay: Test A preemergence, visual plant response rating; conditions: for Kochia plant response rating: preemergence, 0 to 100 scale, 0 no effect, 100 complete control; for Kochia plant response rating (0 to 100 scale): 500 g ai/ha Preemergence, approx. 10 days
Method in brief: as §2

[16] = test system: barnyardgrass (Echinochloa crus-galli); assay: Test A preemergence, visual plant response rating; conditions: for Barnyardgrass plant response rating: preemergence, 0 to 100 scale, 0 no effect, 100 complete control; for Barnyardgrass plant response rating (0 to 100 scale): 500 g ai/ha Preemergence, approx. 10 days
Method in brief: as §2

[17] = test system: foxtail, giant (giant foxtail, Setaria faberii); assay: Test A preemergence, visual plant response rating; conditions: for Foxtail, Giant plant response rating: preemergence, 0 to 100 scale, 0 no effect, 100 complete control; for Foxtail, Giant plant response rating (0 to 100 scale): 500 g ai/ha Preemergence, approx. 10 days
Method in brief: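 Compared with untreated controls, treated plants received a visual injury score on a 0–100 scale around 10 days after application. The compound, in a non-phytotoxic solvent with surfactant, was given as a preemergence soil spray or postemergence at the one- to two-leaf stage.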

[18] = test system: Italian ryegrass (Lolium multiflorum); assay: Test A preemergence, visual plant response rating; conditions: for Ryegrass, Italian plant response rating: preemergence, 0 to 100 scale, 0 no effect, 100 complete control; for Ryegrass, Italian plant response rating (0 to 100 scale): 500 g ai/ha Preemergence, approx. 10 days
Method in brief: as §2

[19] = test system: pigweed (Amaranthus retroflexus); assay: Test A preemergence, visual plant response rating; conditions: for Pigweed plant response rating: preemergence, 0 to 100 scale, 0 no effect, 100 complete control; for Pigweed plant response rating (0 to 100 scale): 500 g ai/ha Preemergence, approx. 10 days
Method in brief: as §2

[20] = test system: ragweed (common ragweed, Ambrosia elatior); assay: Test A preemergence, visual plant response rating; conditions: for Ragweed plant response rating: preemergence, 0 to 100 scale, 0 no effect, 100 complete control; for Ragweed plant response rating (0 to 100 scale): 500 g ai/ha Preemergence, approx. 10 days
Method in brief: as §2

[21] = 31 g ai/ha Postemergence, approx. 10 days
[22] = 500 g ai/ha, postemergence, 0 is no effect, 100 is complete control

Row | SMILES | Plant response rating, Sedge, Umbrella (0 to 100 scale, 0 is no effect, 100 is complete control) [1] | Plant response rating, Barnyardgrass (0 to 100 scale, 0 is no effect, 100 is complete control) [2] | Plant response rating, Ducksalad (0 to 100 scale, 0 is no effect, 100 is complete control) [3] | Plant response rating, Rice (0 to 100 scale, 0 is no effect, 100 is complete control) [4] | Kochia plant response rating [5] | Galium plant response rating [6] | Barnyardgrass plant response rating [7] | Blackgrass plant response rating [8] | Corn plant response rating [9] | Foxtail, Giant plant response rating [10] | Ryegrass, Italian plant response rating [11] | Pigweed plant response rating [12] | Wheat plant response rating [13] | Ragweed plant response rating [14] | Kochia plant response rating ([15]; 125 g ai/ha) | Barnyardgrass plant response rating ([16]; 125 g ai/ha) | Foxtail, Giant plant response rating ([17]; 125 g ai/ha) | Ryegrass, Italian plant response rating ([18]; 125 g ai/ha) | Pigweed plant response rating ([19]; 125 g ai/ha) | Ragweed plant response rating ([20]; 125 g ai/ha) | other results
1 | CON=C(c1c(OC(C)=O)c(C)nn(C)c1=O)c1cccc2ccccc12 [Compound 120] | 0 | 0 | 0 | 0 | 30 | 80 | 20 | 20 | 0 | 40 | 30 | 50 | 0 | 20 | 10 | 10 | 50 | 10 | 100 | 10 | Kochia plant response rating (0 to 100 scale) [5, 21]: 10; Galium plant response rating (0 to 100 scale) [6, 21]: 40; Barnyardgrass plant response rating (0 to 100 scale) [7, 21]: 0; Blackgrass plant response rating (0 to 100 scale) [8, 21]: 0; Corn plant response rating (0 to 100 scale) [9, 21]: 0; Foxtail, Giant plant response rating (0 to 100 scale) [10, 21]: 0; Ryegrass, Italian plant response rating (0 to 100 scale) [11, 21]: 0; Pigweed plant response rating (0 to 100 scale) [12, 21]: 30; Wheat plant response rating (0 to 100 scale) [13, 21]: 0; Ragweed plant response rating (0 to 100 scale) [14, 21]: 0; Kochia plant response rating ([15]; 31 g ai/ha): 0; Barnyardgrass plant response rating ([16]; 31 g ai/ha): 0; Foxtail, Giant plant response rating ([17]; 31 g ai/ha): 20; Ryegrass, Italian plant response rating ([18]; 31 g ai/ha): 0; Pigweed plant response rating ([19]; 31 g ai/ha): 60; Ragweed plant response rating ([20]; 31 g ai/ha): 0
2 | C=CCO/N=C(/c1c(O)c(C)nn(C)c1=O)c1ccc(F)c2ccccc12 [Compound 87] | 0 | 0 | 0 | 0 | 40 | 80 | 60 | 80 | 0 | 70 | 80 | 70 | 40 | 100 | 0 | 70 | 90 | 90 | 30 | 90 | Kochia plant response rating (0 to 100 scale) [5, 22]: 70; Galium plant response rating (0 to 100 scale) [6, 22]: 100; Barnyardgrass plant response rating (0 to 100 scale) [7, 22]: 80; Blackgrass plant response rating (0 to 100 scale) [8, 22]: 90; Corn plant response rating (0 to 100 scale) [9, 22]: 30; Foxtail, Giant plant response rating (0 to 100 scale) [10, 22]: 80; Ryegrass, Italian plant response rating (0 to 100 scale) [11, 22]: 100; Pigweed plant response rating (0 to 100 scale) [12, 22]: 90; Wheat plant response rating (0 to 100 scale) [13, 22]: 60; Ragweed plant response rating (0 to 100 scale) [14, 22]: 90; Kochia plant response rating (0 to 100 scale) [15]: 30; Barnyardgrass plant response rating (0 to 100 scale) [16]: 90; Foxtail, Giant plant response rating (0 to 100 scale) [17]: 100; Ryegrass, Italian plant response rating (0 to 100 scale) [18]: 100; Pigweed plant response rating (0 to 100 scale) [19]: 100; Ragweed plant response rating (0 to 100 scale) [20]: 90
3 | CON=C(c1cc(C(F)(F)F)ccc1Cl)c1c(O)c(C)nn(C)c1=O [Compound 73] | 0 | 0 | 0 | 0 | 60 | 70 | 20 | 30 | 0 | 30 | 40 | 80 | 20 | 50 | 0 | 20 | 20 | 20 | 70 | 30 | Kochia plant response rating (0 to 100 scale) [5, 22]: 80; Galium plant response rating (0 to 100 scale) [6, 22]: 70; Barnyardgrass plant response rating (0 to 100 scale) [7, 22]: 60; Blackgrass plant response rating (0 to 100 scale) [8, 22]: 90; Corn plant response rating (0 to 100 scale) [9, 22]: 20; Foxtail, Giant plant response rating (0 to 100 scale) [10, 22]: 60; Ryegrass, Italian plant response rating (0 to 100 scale) [11, 22]: 90; Pigweed plant response rating (0 to 100 scale) [12, 22]: 90; Wheat plant response rating (0 to 100 scale) [13, 22]: 40; Ragweed plant response rating (0 to 100 scale) [14, 22]: 80; Kochia plant response rating (0 to 100 scale) [15]: 20; Barnyardgrass plant response rating (0 to 100 scale) [16]: 80; Foxtail, Giant plant response rating (0 to 100 scale) [17]: 80; Ryegrass, Italian plant response rating (0 to 100 scale) [18]: 50; Pigweed plant response rating (0 to 100 scale) [19]: 100; Ragweed plant response rating (0 to 100 scale) [20]: 90
